Laboratory results reported in publication PMC11396129, “Oxindole–benzothiazole hybrids as CDK2 inhibitors and anticancer agents: design, synthesis and biological evaluation” (BMC Chemistry, 2024).

What was measured:
[1] = system: NCI/ADR-RES; assay: NCI 60 panel growth inhibition (SRB), ovarian cancer; format: cell-based, human; details: 10 μM
Experimental: (§1) Screening of cytotoxic activity against a panel of sixty human tumor cell lines The selected compounds by NCI were evaluated for their anticancer activity in a two- stage process. […] Then, the output from the single dose screen is reported as a mean graph. […] Assay protocol. […] For a typical screening experiment, cells are inoculated into 96 well microtiter plates in 100 µL at plating densities ranging from 5000 to 40,000 cells/well depending on the doubling time of individual cell lines. […] After 24 h, two plates of each cell line are fixed in situ with TCA, to represent a measurement of the cell population for each cell line at the time of drug addition (Tz). The experimental drugs are solubilized in dimethyl sulfoxide at 400-fold the desired final maximum test concentration and stored frozen prior to use. At the time of drug addition, an aliquot of frozen concentrate is thawed and diluted to twice the desired final maximum test concentration with complete medium containing 50 µg/mL gentamicin. Additional four, 10-fold or ½ log serial dilutions are made to provide a total of five drug concentrations plus control. […] For adherent cells, the assay is terminated by the addition of cold TCA. […] The supernatant is discarded, and the plates are washed five times with tap water and air dried. […] Using the seven absorbance measurements [time zero, (Tz), control growth, (C), and test growth in the presence of drug at the five concentration levels (Ti)], the percentage growth is calculated at each of the drug concentrations levels. Percentage growth inhibition is calculated as: [(Ti Tz)/(C–Tz)] x 100 for concentrations for which Ti>/=Tz and [(Ti-Tz)/Tz] x 100 for concentrations for which Ti < Tz. Three dose response parameters are calculated for each experimental agent. […] The drug concentration resulting in total growth inhibition (TGI) is calculated from Ti = Tz. […] Values are calculated for each of these three parameters if the level of activity is reached; however, if the effect is not reached or is exceeded, the value for that parameter is expressed as greater or less than the maximum or minimum concentration tested.

[2] = system: OVCAR-8; assay: as above; format: cell-based, human; details: OVCAR-8, 10 μM
Experimental: as §1

[3] = system: TK-10; assay: NCI 60 panel growth inhibition (SRB), renal cancer; format: cell-based, human; details: TK-10, 10 μM
Experimental: as §1

[4] = system: ACHN; assay: NCI 60 panel growth inhibition (SRB), renal cancer; format: cell-based, human; details: 10 μM
Experimental: as §1

[5] = system: 786-0; assay: NCI 60 panel growth inhibition (SRB), renal cancer; format: cell-based, human; details: 786-0, 10 μM
Experimental: as §1

[6] = system: SN12C; assay: NCI 60 panel growth inhibition (SRB), renal cancer; format: cell-based, human; details: 10 μM
Experimental: as §1

[7] = system: CAKI-1; assay: NCI 60 panel growth inhibition (SRB), renal cancer; format: cell-based, human; details: CAKI-1, 10 μM
Experimental: as §1

[8] = system: UO-31; assay: NCI 60 panel growth inhibition (SRB), renal cancer; format: cell-based, human; details: UO-31, 10 μM
Experimental: as §1

[9] = system: A498; assay: NCI 60 panel growth inhibition (SRB), renal cancer; format: cell-based, human; details: A498, 10 μM
Experimental: as §1

[10] = system: RXF 393; assay: NCI 60 panel growth inhibition (SRB), renal cancer; format: cell-based, human; details: RXF 393, 10 μM
Experimental: as §1

[11] = system: NCI-H23; assay: NCI 60 panel growth inhibition (SRB), non-small cell lung cancer; format: cell-based, human; details: NCI-H23, 10 μM
Experimental: as §1

[12] = system: HOP-92; assay: as above; format: cell-based, human; details: HOP-92, 10 μM
Experimental: as §1

[13] = system: NCI-H460; assay: as above; format: cell-based, human; details: NCI-H460, 10 μM
Experimental: as §1

[14] = system: A549/ATCC; assay: as above; format: cell-based, human; details: 10 μM
Experimental: as §1

[15] = system: NCI-H226; assay: as above; format: cell-based, human; details: NCI-H226, 10 μM
Experimental: as §1

[16] = system: HOP-62; assay: as above; format: cell-based, human; details: HOP-62, 10 μM
Experimental: as §1

[17] = system: NCI-H322M; assay: as above; format: cell-based, human; details: 10 μM
Experimental: as §1

[18] = system: EKVX; assay: as above; format: cell-based, human; details: 10 μM
Experimental: as §1

[19] = system: NCI-H522; assay: as above; format: cell-based, human; details: NCI-H522, 10 μM
Experimental: as §1

[20] = system: NCI 60 cancer cell line panel; assay: NCI 60 panel growth inhibition (SRB), whole panel; format: cell-based, human; details: mean over NCI 60 panel, 10 μM
Experimental: as §1

[21] = system: COLO 205; assay: NCI 60 panel growth inhibition (SRB), colon cancer; format: cell-based, human; details: COLO 205, 10 μM
Experimental: as §1

[22] = system: KM12; assay: NCI 60 panel growth inhibition (SRB), colon cancer; format: cell-based, human; details: KM12, 10 μM
Experimental: as §1

[23] = system: HCT-116; assay: NCI 60 panel growth inhibition (SRB), colon cancer; format: cell-based, human; details: HCT-116, 10 μM
Experimental: as §1

[24] = system: HCC-2998; assay: NCI 60 panel growth inhibition (SRB), colon cancer; format: cell-based, human; details: HCC-2998, 10 μM
Experimental: as §1

[25] = system: HCT-15; assay: NCI 60 panel growth inhibition (SRB), colon cancer; format: cell-based, human; details: HCT-15, 10 μM
Experimental: as §1

[26] = system: SW-620; assay: NCI 60 panel growth inhibition (SRB), colon cancer; format: cell-based, human; details: SW-620, 10 μM
Experimental: as §1

[27] = system: MCF7; assay: NCI 60 panel growth inhibition (SRB), breast cancer; format: cell-based, human; details: MCF7, 10 μM
Experimental: as §1

[28] = system: MDA-MB-468; assay: as above; format: cell-based, human; details: MDA-MB-468, 10 μM
Experimental: as §1

[29] = system: T-47D; assay: as above; format: cell-based, human; details: 10 μM
Experimental: as §1

[30] = system: MDA-MB-231/ATCC; assay: as above; format: cell-based, human; details: 10 μM
Experimental: as §1

[31] = system: BT-549; assay: as above; format: cell-based, human; details: BT-549, 10 μM
Experimental: as §1

[32] = system: HS 578T; assay: as above; format: cell-based, human; details: 10 μM
Experimental: as §1

[33] = system: PC-3; assay: NCI 60 panel growth inhibition (SRB), prostate cancer; format: cell-based, human; details: PC-3, 10 μM
Experimental: as §1

[34] = system: DU-145; assay: as above; format: cell-based, human; details: DU-145, 10 μM
Experimental: as §1

Row | SMILES | GI% [1] [%] | GI% [2] [%] | melting point [°C] | GI% [3] | GI% [4] [%] | GI% [5] | GI% [6] [%] | GI% [7] [%] | GI% [8] [%] | GI% [9] | GI% [10] [%] | GI% [11] [%] | GI% [12] | GI% [13] | GI% [14] [%] | GI% [15] [%] | GI% [16] | GI% [17] | GI% [18] [%] | GI% [19] | also measured
1 | Cc1ccc2c(c1)C(=NNC(=O)COc1ccccc1-c1nc3ccccc3s1)C(=O)N2 [Compound 9b, 2-(2-(Benzo[d]thiazol-2-yl)phenoxy)-N′-(5-methyl-2-oxoindolin-3-ylidene)acetohydrazide] | 71.87 | 57.37 | 251 to 253 | 93.55% | 52.92 | 57.65% | 61.93 | 41.90 | 27.53 | 5.48% | 134.59 | 85.13 | 35.86% | 34.24% | 28.01 | 105.34 | 51.18% | 19.44% | 24.46 | 37.21% | Mean GI% [20]: 44.28%; GI% [21]: – (GI% < 5%); GI% [22]: 18.69%; GI% [23]: 53.56%; GI% [24]: 19.53%; GI% [25]: 31.29%; GI% [26]: – (GI% < 5%); GI% [27]: 64.25%; GI% [28]: 90.93%; GI% [29]: 48.54%; GI% [30]: 63.76%; GI% [31]: 50.79%; GI% [32]: 58.35%; GI% [33]: 22.82%; GI% [34]: 22.75%
2 | COc1ccc2c(c1)C(=NNC(=O)COc1ccccc1-c1nc3ccccc3s1)C(=O)N2 [Compound 9c, 2-(2-(Benzo[d]thiazol-2-yl)phenoxy)-N′-(5-methoxy-2-oxoindolin-3-ylidene)acetohydrazide] | 25.58 | 19.15 | 240 to 242 | – (GI% < 5%) | 9.04 | 5.40% | 12.43 | 28.09 | 35.66 | – (GI% < 5%) | 23.06 | 17.94 | – (GI% < 5%) | 6.01% | 25.86 | 23.90 | – (GI% < 5%) | – (GI% < 5%) | 25.93 | – (GI% < 5%) | Mean GI% [20]: 12.24%; GI% [21]: – (GI% < 5%); GI% [22]: 15.67%; GI% [23]: 18.17%; GI% [24]: – (GI% < 5%); GI% [25]: 40.05%; GI% [26]: – (GI% < 5%); GI% [27]: 18.66%; GI% [28]: 29.51%; GI% [29]: 36.38%; GI% [30]: – (GI% < 5%); GI% [31]: 18.71%; GI% [32]: – (GI% < 5%); GI% [33]: 43.83%; GI% [34]: 6.75%
3 | O=C(COc1ccccc1-c1nc2ccccc2s1)NN=C1C(=O)Nc2ccc(Br)cc21 [Compound 9f, 2-(2-(Benzo[d]thiazol-2-yl)phenoxy)-N′-(5-bromo-2-oxoindolin-3-ylidene)acetohydrazide] | 49.76 | 71.28 | 261 to 263 | 55.14% | 64.71 | 101.23% | 67.11 | 51.85 | 21.89 | 12.61% | 82.91 | 40.56 | 51.76% | 18.32% | 29.34 | 106.99 | 74.09% | 17.70% | 19.72 | 51.70% | Mean GI% [20]: 43.78%; GI% [21]: – (GI% < 5%); GI% [22]: 15.34%; GI% [23]: 53.40%; GI% [24]: 11.62%; GI% [25]: 17.46%; GI% [26]: – (GI% < 5%); GI% [27]: 55.39%; GI% [28]: 63.10%; GI% [29]: 60.76%; GI% [30]: 55.33%; GI% [31]: 86.84%; GI% [32]: 75.23%; GI% [33]: 27.83%; GI% [34]: 14.27%
4 | COc1cccc(-c2nc3ccccc3s2)c1OCC(=O)NN=C1C(=O)Nc2ccccc21 [Compound 9g, 2-(2-(Benzo[d]thiazol-2-yl)-6-methoxyphenoxy)-N′-(2-oxoindolin-3-ylidene)acetohydrazide] | 28.45 | 10.62 | 246 to 248 | – (GI% < 5%) | 14.78 | – (GI% < 5%) | 18.49 | 34.75 | 41.81 | – (GI% < 5%) | 35.85 | 25.24 | 34.60% | – (GI% < 5%) | 16.44 | 45.16 | – (GI% < 5%) | 10.24% | 29.56 | 33.32% | Mean GI% [20]: 15.46%; GI% [21]: 25.08%; GI% [22]: 8.64%; GI% [23]: 20.48%; GI% [24]: – (GI% < 5%); GI% [25]: 25.54%; GI% [26]: – (GI% < 5%); GI% [27]: 26.62%; GI% [28]: 50.47%; GI% [29]: 29.32%; GI% [30]: 18.32%; GI% [31]: 25.83%; GI% [32]: 16.30%; GI% [33]: 44.41%; GI% [34]: – (GI% < 5%)
